Experimental findings from patent US20120034210A1, “COMPOSITIONS FOR POTENTIATING APOPOSIS SIGNALS IN TUMOUR CELLS” (INSTITUT BERGONIE, priority 2008, published 2012) are described below.

Type in all cases: cell-based, human
The subject of assay [1] is Raji, BL2, Jurkat cell lines and activated PBL. Nature of the assay: Apoptosis % by loss of mitochondrial membrane potential. Here is the method:
2 to 4.10^4 cells were deposited in wells in a 96-well plate. The cells were incubated, in the presence of the different reactants for the times specified, at 37° C. in a final volume of 100 or 200 μl. The apoptotic cells were identified in the cellular populations by measuring mitochondrial de-polarisation. […] These potentiometric probes allowed monitoring the variations of the mitochondrial membrane potential. […] Following cell treatment with the different drugs, the former were placed in the presence of TMRM or DIOC6 at 10 nM concentration, for 20 minutes at 37° C. then the fluorescence of the cells was analysed by flow cytometry.

Assay [2] has as its system CD95. Kind of assay: CD95 aggregation by size exclusion chromatography. Conditions: Jurkat cells; BAPTA-AM pre-treatment. An excerpt:
In order to validate that CD95 underwent aggregation upon down-modulation of intracellular calcium, the formation the micrometer-sized CD95-containing domain was investigated by using size exclusion chromatography (FIG. 10). Decrease in intracellular calcium allowed the redistribution of a significant proportion of CD95 into heavy weighted fractions (FIG. 10), which confirmed that the slight down-modulation of [Ca^2+]i led to the formation of cluster of CD95. It was also observed that calcium-driven CD95-CAP occurred independently of de novo expression of CD95L since no trace of the membrane-bound ligand was detected. […] Since CD95 clustering is an early step of the CD95 molecular ordering, the impact of intracellular calcium on the initial events of CD95 pathway and on cell death was further assessed.

Assay [3] relates to CD95. Kind of assay: CD95 expression. To be noted: 2-APB or BAPTA-AM regimens. Here is the method: This technique allowed detecting the presence of a protein on the cell surface. All the steps took place at 4° C. so as to reduce membrane proteins endocytosis and loss of cell labelling.
Plasma membrane of the cells (10^6 cells per marking) was saturated for 5 minutes in 1 ml PBS containing 1% (w/v) BSA (bovine serum albumin) and 1% (v/v) foetal veal serum (FVS). This solution was used for washings and antibody dilutions.
The cells were incubated for 30 minutes with 50 μl primary antibody (anti-Fas DX2 clone at 10 μg/ml), washed twice with the PBS/BSA/FCS solution, then incubated with 50 μl of a secondary antibody coupled with phycoerythrin for 30 minutes. After 3 washings, the cells were re-suspended in 200 μl PBS/BSA/SVF and analysed immediately by flow cytometry (FACsCalibur, BD Biosciences). The fluorescence intensity was analysed with the Cellquest software.

For the compound `CC(=O)OCOC(=O)CN(CC(=O)OCOC(C)=O)c1ccccc1OCCOc1ccccc1N(CC(=O)OCOC(C)=O)CC(=O)OCOC(C)=O` [BAPTA-AM, 1,2-bis-(o-Aminophenoxy)ethane-N,N,N′,N′-tetraacetic tetra-(acetoxymethyl) acid Ester], the “potentiation of apoptotic signals mediated by edelfosine or Rituximab” value in assay [1] (B lymphoma cell lines, BAPTA-AM 1 μM pre-incubation) is “allowed potentiating apoptotic signals”. For the same compound, the “apoptotic signal with Rituximab associated with BAPTA-AM” value in assay [1] (BL2 cell line, deprived of Fas receptor, Rituximab resistant) was “no increase in the apoptotic signal has been observed”. The CD95 aggregation result in the assay with CD95 [2] is on record as “formation of the CD95 aggregation”. Also, the “expression of CD95” value in the assay on CD95 [3] is given as “did not modify the expression of CD95”.
